These results are taken from patent publication EP4775580A1, “COMPOUND, PHARMACEUTICAL COMPOSITION COMPRISING SAME, AND USE THEREOF” (Euregen Biopharma Co., Ltd., priority 2023, dated 2025).

Data set [1] concerns MV-4-11 cells. Kind of data set: Antiproliferative activity against MV-4-11 cells (CTG method, 72 h). The format is cell-based. The settings on record: Homo sapiens, MV4-11, 72 hours incubation, CellTiter-Glo. The source says: • 1. Experimental Principle: MV-4-11 is a human leukemia cell line harboring MLL translocation and expressing the MLL fusion protein MLL-AF4. […] Experimental Materials: CellTiter-Glo was purchased from Promega (Cat. #G7571); IMDM medium was purchased from Gibco (Cat. #12440061); fetal bovine serum was purchased from Excell (Cat. #FND500); dimethyl sulfoxide (DMSO) was purchased from Sigma (Cat. #D2650); 384-well cell culture plates were purchased from Corning (Cat. #3756); automated cell counter was obtained from Life Technologies (Model: Countess II); microplate reader was obtained from PerkinElmer (Model: EnVision Multilabel Reader). • 3. Experimental Methods: Cells in logarithmic growth phase were resuspended in growth medium (IMDM + 10% FBS) and diluted to the target density (50,000/mL). The cell suspension was seeded into 384-well plates at 50 µL per well and incubated overnight at 37°C in a 5% CO2 incubator.
Test compounds were dissolved in DMSO to prepare 10 mM stock solutions. The stock solutions were first diluted to 2 mmol/L with DMSO, followed by 3-fold serial dilutions to generate 10 concentrations. From each concentration, 5.5 µL was diluted with 94.5 µL growth medium. The diluted solutions were then added to the 384-well plates containing seeded cells at 5 µL per well.
Cells treated with test compounds were incubated at 37°C in a 5% CO2 incubator for 72 hours. The 384-well plates were equilibrated at room temperature, and 15 µL of CellTiter-Glo reagent was added to each well. The plates were mixed on a vortex mixer for 2 minutes and incubated at room temperature for 60 minutes. Luminescence values were read using the EnVision Multilabel Reader, and IC50 values were calculated using GraphPad Prism 5.0 software.
In general terms: Cellular ATP, detected with luciferase, serves as a proxy for viable cell number.

The nature of data set [2]: Pharmacokinetics in mice after single IV and PO administration (LC-MS/MS). The format is in vivo, male ICR mice. Particulars: ICR mice. How it is done:
• 1. Objective: This study aimed to characterize the pharmacokinetic properties of selected compounds from the examples of the present invention in male ICR mice following single intravenous (IV) injection and oral (PO) administration using LC-MS/MS methodology. • 2. Experimental Materials: Test compounds were prepared according to the examples of the present invention; male ICR mice were obtained from Shanghai Jihui Laboratory Animal Breeding Co., Ltd. (License No. SCXK(Shanghai)2022-0009). • 3. Experimental Methods: Preparation of 0.5% methylcellulose (pH = 4.91): 5 g of methylcellulose was weighed and dissolved in 1000 mL of purified water, and the pH was adjusted to 4.91 with 100 mM citric acid.
Preparation of oral formulations: The required amount of test compound was weighed and dissolved in 0.5% methylcellulose (pH = 4.91) solution to obtain a suspension or solution at 3 mg/mL.
Preparation of intravenous injection formulations: The required amount of test compound was weighed and dissolved in 0.5 mL dimethyl sulfoxide to prepare a 12 mg/mL solution. To 0.25 mL of this solution, 0.5 mL of polyethylene glycol 15-hydroxystearate (Solutol) and 4.25 mL of normal saline were added to obtain a 0.6 mg/mL solution.
Dosing: Male ICR mice were fasted overnight prior to oral (PO) administration; fasting was not required for the single intravenous (IV) injection group. Food was provided 4 hours post-dosing.
Sample Collection: Blood was collected from the jugular vein or other suitable veins, with 0.03 mL collected at each time point. Samples were placed in tubes containing dipotassium ethylenediaminetetraacetate and kept on ice prior to centrifugation. Within 1 hour of blood collection, samples were centrifuged at 6800 × g for 6 minutes at 2-8°C and stored at -80°C. Blood sampling time points for intravenous administration were 0.083, 0.25, 0.5, 1, 2, 4, 8, 24, and 32 hours post-dosing. Blood sampling time points for oral administration were 0.25, 0.5, 1, 2, 4, 8, 24, and 32 hours post-dosing.

Data set [3] has as its system MV-4-11 subcutaneous tumor xenograft. The data set is described as follows: In vivo efficacy in subcutaneous MV-4-11 tumor xenograft model. On the set-up: species or system female NOD/SCID mice. Particulars: oral gavage once daily, tumor volume, Figure 1. An excerpt:
• 1. Objective: To evaluate the in vivo efficacy of test compounds in a subcutaneous MV-4-11 tumor xenograft model in female NOD/SCID mice. • 2. Experimental Materials: The test compound was Compound 3 prepared according to the examples of the present invention; the positive control compound SNDX-5613 was purchased from Chengdu Zhihui Zhongxin Biomedical Co., Ltd.; MV-4-11 cells were purchased from Nanjing Cobioer; NOD/SCID mice were purchased from Beijing Vital River Laboratory Animal Technology Co., Ltd. • 3. Experimental Methods: Female NOD/SCID mice, 6-8 weeks of age, weighing 16-22 g, were used. MV-4-11 cells were cultured in IMDM medium supplemented with 20% fetal bovine serum. Cells in exponential growth phase were harvested, resuspended in phosphate-buffered saline, and prepared as a cell suspension at a density of 1 × 10^7 cells/0.1 mL. Cells were subcutaneously inoculated into the right dorsal neck region of each mouse (1 × 10^7 cells/mouse) with 50% Matrigel. When the mean tumor volume reached approximately 50-100 mm^3, mice were randomized and treatment was initiated by oral gavage administration once daily. Tumor diameters were measured twice weekly using digital calipers. Tumor volume was calculated using the formula: V = 0.5 × a × b^2, where a and b represent the longest and shortest tumor diameters, respectively.

SMILES strings stand for the structures. Where two headings read alike, the source gives them in different places.

Turning to `CCN(C(=O)c1cc(F)ccc1N1CCN([C@@H]2CCN([C@H](CCCN(C)CCOC)C(C)C)C2)c2ncncc21)C(C)C` [Example 3], the IC50 in data set [1] turned out to be 0.0229 µM. The “PO F” value in data set [2] (PO 30 mg/kg vs IV 3 mg/kg) stood at 25.6%. Also, the AUC(0-t) in data set [2] (mouse, in vivo, IV 3 mg/kg, read-out: IV AUC(0-t)) stood at 429 ng·h/mL; in data set [2] (mouse, in vivo, PO 30 mg/kg, 0.5% methylcellulose (pH = 4.91), read-out: PO AUC(0-t)), 1100 ng·h/mL. The clearance in data set [2] (mouse, in vivo, IV 3 mg/kg, read-out: IV CL) is 104 mL/min/kg. Also, the Cmax in data set [2] (mouse, in vivo, IV 3 mg/kg, read-out: IV Cmax) came out at 418 ng/mL; in data set [2] (mouse, in vivo, PO 30 mg/kg, 0.5% methylcellulose (pH = 4.91), read-out: PO Cmax) it was 293 ng/mL. Also, the Vd in data set [2] (mouse, in vivo, IV 3 mg/kg, read-out: IV Vss) came out at 65.1 L/kg. The half-life in data set [2] (mouse, in vivo, IV 3 mg/kg, read-out: IV t1/2 (converted)) was 10.9 h; in data set [2] (mouse, in vivo, PO 30 mg/kg, 0.5% methylcellulose (pH = 4.91), read-out: PO t1/2 (converted)) it was 6.49 h. The “efficacy in MV-4-11 subcutaneous tumor xenograft model” value in data set [3] is “superior efficacy compared to the positive control SNDX-5613”.

As a reminder, the IC50 is the concentration that inhibits the measured activity by half. By AUC(0-t) is commonly meant exposure summed from dosing to a finite time, without extrapolation to infinity. A word on the Cmax: it is the maximum level reached in the sampled fluid or tissue.
